Patent US4169097A, “2,3-Dihydro-4H-1-benzopyran-4-one O-carbamoyl oximes” (priority 1978, dated 1979)

Tested on: gastric acid secretion
Assay: modified standard pylorus-ligated secretory testing procedure in the rat
Type: in vivo, Sprague-Dawley rats
Conditions: 50-100 mg/kg p.o., 1 hr. prior to ligation, 4 hrs. after ligation; for % Inhibition Gastric acid output: titration to pH 7, vs control 0.5% Methocel; for % Inhibition Volume of gastric secretion: vs control 0.5% Methocel
Excerpt: Such effect is evidenced using a modified standard pylorus-ligated secretory testing procedure in the rat. Sprague-Dawley rats, weighing 180-210 g and previously fasted for 24 hrs., were used. All compounds were given perorally as suspensions in 0.5% Methocel 1 hr. prior to pylorus ligation. Under light ether anesthesia, the rat stomach was ligated at the pylorus region. Four hrs. after ligation, the conscious rat was sacrificed by a chloroform overdose. The stomach was carefully excised and its content drained into a centrifuge tube. Samples were centrifuged to separate secretions from debris. Gastric fluid volume reading and determination of sample contamination, based on debris and sample color, was made. Titration was performed on a sample aliquot from 1 ml diluted to a volume of 5 ml using distilled water. The titrant used was 0.1 N NaOH. Total gastric acid output in the stomach was determined by titration to pH 7. A dose from 50-100 mg/kg p.o. of a compound was administered to a group of rats and its effect on the volume of gastric secretion and acid output compared to a control group receiving 0.5% Methocel p.o. The activity of each compound based on the degree of inhibition of gastric acid output is set forth in Table I.

CCCNC(=O)ON=C1CCOc2ccccc21 [VIII, 2,3-Dihydro-4H-1-benzopyran-4-one 0-(1-Propylaminocarbonyl)oxime]
% Inhibition Gastric acid output: 88.1%
% Inhibition Volume of gastric secretion: 73.1%

CCNC(=O)ON=C1CCOc2ccccc21 [III, 2,3-Dihydro-4-H-1-Benzopyran-4-one O-(Ethylaminocarbonyl)oxime]
% Inhibition Gastric acid output: 79.7%
% Inhibition Volume of gastric secretion: 61.8%

C=CCNC(=O)ON=C1CCOc2ccccc21 [VII, 2,3-Dihydro-4H-1-benzopyran-4-one O-[(2-Propenyl)aminocarbonyl]oxime]
% Inhibition Gastric acid output: 89.9%
% Inhibition Volume of gastric secretion: 76.2%

NC(=O)ON=C1CCOc2ccccc21 [IX, 2,3-Dihydro-4H-1-benzopyran-4-one O-(Aminocarbonyl)oxime]
% Inhibition Gastric acid output: 77.9%
% Inhibition Volume of gastric secretion: 60.5%

CNC(=O)ON=C1CCOc2ccc(N)cc21 [VI, 6-Amino-2,3-dihydro-4H-1-benzopyran-4-one O(Methylaminocarbonyl)oxime]
% Inhibition Gastric acid output: 55.8%
% Inhibition Volume of gastric secretion: 64.4%

CNC(=O)ON=C1CCOc2ccccc21 [I, 2,3-Dihydro-4H-1-benzopyran-4-one O-(Methylcarbamoyl) oxime]
% Inhibition Gastric acid output: 60.4%
% Inhibition Volume of gastric secretion: 34.1%

CCNC(=O)ON=C1CCOc2ccc(OC)cc21 [II, 2,3-Dihydro-6-methoxy-4-H-1-benzopyran-4-one O-(Ethylcarbamoyl)-oxime]
% Inhibition Gastric acid output: 57.7%
% Inhibition Volume of gastric secretion: 33.2%

CNC(=O)ON=C1CCOc2ccc(OC)cc21 [IV, 2,3-Dihydro-6-methoxy-4H-1-benzopyran-4-one O-(Methylaminocarbonyl)oxime]
% Inhibition Gastric acid output: 45.5%
% Inhibition Volume of gastric secretion: 35.3%

CNC(=O)ON=C1CCOc2ccc(Cl)cc21 [V, 6-Chloro-2,3-dihydro-4H-1-benzopyran-4-one O-(Methylaminocarbonyl)oxime]
% Inhibition Gastric acid output: 40.0%
% Inhibition Volume of gastric secretion: 55.2%
